Experimental data: patent US6534523B1, “Hepatitis C inhibitor tri-peptides” (Boehringer Ingelheim (Canada) Ltd., priority 1998, dated 2003)

Key:
[1] = biological target: porcine pancreatic elastase (PPE) (Sus scrofa, UniProt P00772); test: Specificity assay (Example 40), porcine pancreatic elastase; type: biochemical
Procedure: The specificity of the compounds was determined against a variety of serine proteases: human leukocyte elastase, porcine pancreatic elastase and bovine pancreatic α-chymotrypsin and one cysteine protease: human liver cathepsin B. In all cases a 96-well plate format protocol using a calorimetric p-nitroaniline (pNA) substrate specific for each enzyme was used. Each assay included a 1 h enzyme-inhibitor pre-incubation at 30° C. followed by addition of substrate and hydrolysis to ≈30% conversion as measured on a UV Thermomax® microplate reader. Substrate concentrations were kept as low as possible compared to KM to reduce substrate competition. Compound concentrations varied from 300 to 0.06 μM depending on their potency.
The final conditions for each assay were as follows:
50 mM Tris-HCl pH 8, 0.5 M Na2SO4, 50 mM NaCl, 0.1 mM EDTA, 3% DMSO, 0.01% Tween-20 with;
[100 μM Succ-AAPF-pNA and 250 pM α-chymotrypsin], [133 μM Succ-AAA-pNA and 8 nM porcine elastase], [133 μM Succ-AAV-pNA and 8 nM leukocyte elastase]; or […]
After 60 min pre-incubation at 30° C., 20 μL of substrate solution (50 mM Tris-HCl, pH 8, 0.5 M Na2SO4, 50 mM NaCl, 0.1 mM EDTA, 665 μM Succ-AAA-pNA) were added to each well and the reaction was further incubated at 30° C. for 60 min after which time the absorbance was read on the UV Thermomax® plate reader. […]
The percentage of inhibition was calculated using the formula: […]

[2] = system: NS3 protease in Huh-7 cells co-transfected with NS3-NS4A-NS4B-NS5A-tTA and SEAP constructs; test: NS3 protease surrogate cell-based assay (Example 39), SEAP reporter; details: Homo sapiens, SEAP activity, 24-h incubation, read-out: EC50 as determined by the assay of Example 39
Excerpt: NS3 Protease Cell-based Assay
This assay was done with Huh-7 cells, a human cell line derived from a hepatoma, co-transfected with 2 DNA constructs:
one expressing a polyprotein comprising the HCV non-structural proteins fused to tTA in the following order: NS3-NS4A-NS4B-NS5A-tTA (called NS3);
the other expressing the reporter protein, secreted alkaline phosphatase, under the control of tTA (called SEAP).
The polyprotein must be cleaved by the NS3 protease for the mature proteins to be released. Upon release of the mature proteins, it is believed that the viral proteins will form a complex at the membrane of the endoplasmic reticulum while tTA will migrate to the nucleus and transactivate the SEAP gene. Therefore, reduction of NS3 proteolytic activity should lead to reduction of mature tTA levels and concomitant decrease in SEAP activity.
To control for other effects of the compounds, a parallel transfection was done where a construct expressing tTA alone (called tTA) was co-transfected with the SEAP construct such that SEAP activity is independent of NS3 proteolytic activity. […] After a 24-h incubation period, an aliquot of the medium was drawn and the SEAP activity in this aliquot was measured with the Phospha-Light kit (Tropix). […]

Chain of porcine pancreatic elastase (PPE) (P00772 27-266): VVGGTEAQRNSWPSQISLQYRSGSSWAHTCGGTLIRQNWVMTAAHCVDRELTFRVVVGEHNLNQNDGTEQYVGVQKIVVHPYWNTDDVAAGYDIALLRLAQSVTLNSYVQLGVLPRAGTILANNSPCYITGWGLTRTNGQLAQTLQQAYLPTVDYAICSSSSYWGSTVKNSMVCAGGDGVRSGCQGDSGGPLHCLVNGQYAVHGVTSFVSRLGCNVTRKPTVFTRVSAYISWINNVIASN

Compound: C=C[C@@H]1C[C@]1(NC(=O)[C@@H]1C[C@@H](Oc2cc(-c3ccccc3)nc3cc(OC)ccc23)CN1C(=O)[C@@H](NC(=O)OC(C)(C)C)C(C)C)C(=O)O [compound 601]
- IC50 [1]: > 75 µM
- EC50 [2]: 8.2 µM
